Data as given in the supplement of paper PMC10307832.

Experiments:
Assay in all cases: relative viability (nuclei count vs DMSO), 5 days (fraction); higher = more cells survive
[1] = compound: C1=CC=C2C(=C1)C=CC(=C2SSC3=C(C=CC4=CC=CC=C43)O)O [IPA-3] + CC(=O)Nc1cccc(-n2c(=O)n(C3CC3)c(=O)c3c(Nc4ccc(I)cc4F)n(C)c(=O)c(C)c32)c1 [Trametinib] (partner 0.02 µM)
Summary of the method: (§1)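 Lung cancer cell lines were pin-tool dosed in 1536-well plates on the day after seeding, with either a lone drug or a fixed anchor-drug dose plus five library-drug doses (not always all listed) in √10 steps. Nuclei were counted on 4× images after 5 days. Relative viability is the ratio of treated-well to vehicle-well nuclei counts, with each value a median of duplicate plates.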

[2] = compound: C1=CC=C2C(=C1)C=CC(=C2SSC3=C(C=CC4=CC=CC=C43)O)O [IPA-3] + CS(=O)(=O)N1CCN(Cc2cc3nc(-c4cccc5[nH]ncc45)nc(N4CCOCC4)c3s2)CC1 [Pictilisib] (partner 1 µM)
Summary of the method: as §1

[3] = compound: Cc1ccc(-n2nc(C(C)(C)C)cc2NC(=O)Nc2ccc(OCCN3CCOCC3)c3ccccc23)cc1 [Doramapimod] + Cc1nc(NC(=O)N2CCC[C@H]2C(N)=O)sc1-c1ccnc(C(C)(C)C(F)(F)F)c1 [Alpelisib] (partner 2 µM)
Summary of the method: as §1

[4] = compound: Cn1c(Nc2ccc(C(F)(F)F)cc2)nc2cc(Oc3ccnc(-c4ncc(C(F)(F)F)[nH]4)c3)ccc21 [RAF265] + N=C(N)NC(=N)NCCc1ccccc1 [Phenformin] (partner 250 µM)
Summary of the method: as §1

Cell Line | relative viability ([1]; first compound 0.2 µM) | relative viability ([1]; first compound 0.6325 µM) | relative viability ([1]; first compound 2 µM) | relative viability ([1]; first compound 6.325 µM) | relative viability ([1]; first compound 20 µM) | relative viability ([2]; first compound 0.2 µM) | relative viability ([2]; first compound 0.6325 µM) | relative viability ([2]; first compound 2 µM) | relative viability ([2]; first compound 6.325 µM) | relative viability ([2]; first compound 20 µM) | relative viability ([3]; first compound 0.02 µM) | relative viability ([3]; first compound 0.06325 µM) | relative viability ([3]; first compound 0.2 µM) | relative viability ([3]; first compound 0.6325 µM) | relative viability ([3]; first compound 2 µM) | relative viability ([4]; first compound 0.01 µM) | relative viability ([4]; first compound 0.03162 µM) | relative viability ([4]; first compound 0.1 µM) | relative viability ([4]; first compound 0.3162 µM) | relative viability ([4]; first compound 1 µM)
NCI-H727 | 0.373 | 0.409 | 0.402 | 0.344 | 0.417 | 0.583 | 0.229 | 0.456 | 0.513 | 0.402 | 0.5 | 0.587 | 0.598 | 0.675 | 0.528 | 0.531 | 0.502 | 0.452 | 0.341 | 0.398
NCI-H838 | 0.8 | 0.519 | 0.352 | 0.478 | 0.517 | 0.533 | 0.455 | 0.451 | 0.463 | 0.337 | 0.973 | 0.953 | 1 | 1.09 | 0.971 | 0.733 | 0.606 | 0.521 | 0.499 | 0.517
NCI-H1355 | 0.462 | 0.476 | 0.428 | 0.423 | 0.443 | 0.396 | 0.396 | 0.466 | 0.484 | 0.401 | 0.739 | 0.793 | 0.754 | 0.868 | 0.732 | 0.432 | 0.434 | 0.41 | 0.309 | 0.332
NCI-H1395 | 1.02 | 1.03 | 1.04 | 1.05 | 1.13 | 0.607 | 0.61 | 0.441 | 0.651 | 0.668 | 1.07 | 1.08 | 0.93 | 1.14 | 0.938 | 0.438 | 0.444 | 0.423 | 0.409 | 0.387
NCI-H1437 | 0.712 | 0.611 | 0.483 | 0.468 | 0.546 | 0.562 | 0.486 | 0.458 | 0.61 | 0.616 | 0.904 | 1.01 | 0.915 | 0.926 | 0.965 | 0.352 | 0.388 | 0.287 | 0.329 | 0.242
NCI-H1651 | 0.945 | 0.798 | 0.883 | 0.904 | 0.971 | 0.649 | – | 0.581 | 0.659 | 0.799 | 0.788 | 0.987 | 0.876 | 0.962 | 0.859 | 0.369 | 0.334 | 0.316 | 0.294 | 0.295
NCI-H1666 | 0.902 | 0.855 | 0.886 | 0.924 | 0.884 | 0.541 | 0.521 | 0.445 | 0.403 | 0.541 | 0.834 | 1.01 | 0.882 | 1.03 | 1.01 | 0.597 | 0.343 | 0.567 | 0.579 | 0.559
NCI-H1734 | 0.661 | 0.628 | 0.707 | 0.618 | 0.72 | 0.469 | 0.473 | 0.441 | 0.494 | 0.435 | 0.603 | 0.567 | 0.559 | 0.629 | 0.533 | 0.458 | 0.376 | 0.32 | 0.317 | 0.257
NCI-H1755 | 0.764 | 0.797 | 0.739 | 0.739 | 0.753 | 0.455 | 0.358 | 0.397 | 0.345 | 0.536 | 0.907 | 0.884 | 0.989 | 0.98 | 0.922 | 0.612 | 0.59 | 0.571 | 0.459 | 0.432
NCI-H1792 | 0.526 | 0.504 | – | 0.407 | 0.495 | 0.258 | 0.285 | 0.25 | 0.272 | 0.325 | 0.606 | 0.658 | 0.578 | 0.713 | 0.521 | 0.394 | 0.182 | 0.186 | 0.0818 | 0.0945
NCI-H1793 | 0.456 | 0.373 | 0.448 | 0.376 | 0.437 | 0.318 | 0.352 | 0.314 | 0.367 | 0.418 | 0.788 | 0.595 | 0.786 | 0.643 | 0.595 | 0.352 | 0.351 | 0.298 | – | 0.262
NCI-H1915 | 0.301 | 0.271 | 0.286 | 0.295 | 0.318 | 0.956 | 0.987 | 0.903 | 0.966 | 0.933 | 1.04 | 1.1 | 1.12 | 1.11 | 1.08 | 0.364 | 0.341 | 0.265 | 0.203 | 0.183
NCI-H1944 | 0.436 | 0.433 | 0.401 | 0.42 | 0.415 | 0.351 | 0.344 | 0.371 | 0.38 | 0.345 | 0.756 | 0.829 | 0.765 | 0.829 | 0.71 | 0.192 | 0.202 | 0.184 | 0.168 | 0.143
NCI-H1975 | 0.328 | 0.325 | 0.331 | 0.424 | 0.323 | 0.342 | 0.284 | 0.316 | 0.321 | 0.259 | 0.756 | 0.674 | 0.69 | 0.77 | 0.676 | 0.386 | 0.343 | 0.284 | 0.251 | 0.205
NCI-H1993 | 0.491 | 0.475 | 0.468 | 0.558 | 0.506 | 0.735 | 0.742 | 0.969 | 0.681 | 1.04 | 0.765 | 0.617 | 0.707 | 0.626 | 0.664 | 0.455 | 0.586 | 0.502 | 0.603 | 0.479
NCI-H2009 | 0.307 | 0.266 | 0.245 | 0.279 | 0.241 | 0.889 | 0.726 | 0.784 | 0.83 | 0.57 | 1.23 | 1.22 | 1.22 | 1.13 | 1.13 | 0.479 | 0.416 | 0.407 | 0.468 | 0.38
